# Data from article PMC6345745, “Discovery of novel hit compounds with broad activity against visceral and cutaneous Leishmania species by comparative phenotypic screening” (Scientific Reports, 2019).
# Tests used:
# [1] = system: BMDM (bone marrow derived macrophages); test: Host cell toxicity (macrophage number) in the L. donovani high content assay; format: cell-based, mouse; details: for EC50: Mus musculus, BMDM, 72 h, toxicity against macrophages, 3 days, concentrations from 10 to 0.16 µM
# Experimental: Primary mouse macrophages were prepared as described. Briefly, bone marrow cells were recovered from BALB/c mice and were resuspended in complete DMEM medium (PAN Biotech) supplemented with 75 ng/ml of recombinant mouse CSF-1 (ImmunoTools). Cells were distributed in hydrophobic Petri dishes (Greiner 664161, 1,5 × 10^7 in 11 ml) and incubated at 37 °C in a 7.5% CO2 air atmosphere for 6 days (with mCSF-1 supplemented medium added at day 3).
# (§1) Bone marrow derived macrophages (BMDMs) at day 6 of differentiation were resuspended in complete medium supplemented with CSF-1 (25 ng/ml) and deposited in 384 well plates (culture-treated, flat-optically clear bottom, Cellcarrier plate, PerkinElmer). Five hours later purified Am were added.
# (§2) One day after macrophage infection, Leish-Box compounds dissolved in DMSO were added for 3 days at 10 or 1 μM final concentration resulting in a 1% DMSO final concentration. Each compound was tested in quadruplicates. Controls included mock (no liquid added), vehicle control (DMSO), positive control (anti-leishmanial amphotericin B, AmB), and cytotoxicity control (cycloheximide, Cyclo).
# (§3) The high content assay used to assess the anti-leishmanial activity against intramacrophagic L. donovani amastigotes corresponds to the L. amazonensis HCS protocol up to the drug incubation step. Then, BMDM cultures were fixed with 4% paraformaldehyde solution in PBS for 1 hour at room temperature, washed with PBS, blocked with 50 mM NH4Cl-PBS for 15 min, and saturated for 30 min with saponin-PBS (0.1 mg/ml) containing 5% normal goat serum. All washing steps were performed with saponin-PBS. Cells were incubated for 45 min with saponin-PBS with 0.25% gelatin and an immune serum obtained from a L. donovani infected hamster (dilution 1/1000), washed twice, and further incubated for 45 min with saponin-PBS containing 0.25% gelatin and 2 µg/ml conjugated AlexaFluor 488 goat anti hamster IgG (Jackson ImmunoReasearch). Finally, after additional washing, Hoechst 33342 (5 µg/ml) and HCS CellMask Blue stain (HCS, Invitrogen Molecular Probes, 2 µg/ml) were added for 30 min at room temperature, washed twice with PBS and stored at 4 °C until acquisition. For hit compounds EC50s were calculated using SigmaPlot software (four parameter logistic equation) following application of a range of concentrations (from 10 to 0.16 µM) performed in duplicates.
# (§4) Images were transferred to the Columbus Conductor™ Database (Perkin Elmer Technologies) and analyzed using the integrated Image analysis building blocks. For L. donovani HCA, we developed a new script based on object segmentation subroutines detecting successively the macrophage nucleus, the macrophage cytoplasm, the parasites and their nuclei, with their associated features (number, size and object intensity). All methods used for segmentation are described in the Columbus Manuel. Analysis was simplified by only taking into account the number of macrophages and the number of amastigotes per macrophage, which was the common way to estimate the anti-leishmanial activity in screening campaigns. For the sake of clarity, both toxicity against host cells and activity against the parasites of tested compounds were normalized to DMSO-treated controls and expressed as percent of DMSO controls. The viability index is calculated by establishing a ratio of macrophage numbers between compound- and DMSO-treated cells, while the anti-leishmanial activity is represented by the number of amastigotes per macrophage. Compounds causing a 50% or higher reduction of macrophage density were considered toxic. […] For the L. amazonensis HCA, we applied the method we described previously. Quantitative values obtained for host cell and parasite numbers were exported to Excel and SigmaPlot for further analysis and graphical representations.
# [2] = system: intracellular L. donovani amastigotes (strain Ld1S); test: High content assay on intramacrophagic L. donovani amastigotes in primary mouse macrophages; format: cell-based, Leishmania donovani; details: for SI (selectivity index): EC50 (BMDM) versus EC50 (L. donovani Am); for EC50: Leishmania donovani, BMDM, 72 h, read-out: EC50 (L. donovani Am)
# Experimental: as §1, §2, §3
# (§5) Images of macrophage cultures were acquired using the automatic Opera QEHS confocal imaging system (Perkin Elmer Technology). For the L. donovani HCA, a 40x water objective and two lasers (488 nm for immuno-stained parasites; 405 nm for Hoechst-stained parasite and macrophage nuclei, and HCS-stained macrophage cytoplasm) were used for acquiring 285 fields for the entire well or 30 fields per well in routine HCA conditions. For L. amazonensis HCA, a 10x air objective and three lasers (561 nm for mCherry-expressing parasites; 488 nm for LysoTracker-containing PVs; 405 nm for Hoechst-stained macrophage nuclei) were used to acquire images from entire wells (15 fields).
# as §4, with “Quantitative values obtained for host cell and parasite numbers were exported to Excel and SigmaPlot for further analysis and graphical representations.” left out
# [3] = system: intracellular L. amazonensis amastigotes (strain LV79); test: High content assay on intramacrophagic L. amazonensis amastigotes in primary mouse macrophages; format: cell-based, Leishmania amazonensis; details: hit compounds of Figure 6
# Experimental: as §1, §2
# The high content assay used to assess the anti-leishmanial activity against intramacrophagic amastigotes of L. amazonensis has been described elsewhere. Briefly, after 3 days of co-incubation with compounds, BMDM nuclei and parasitophorous vacuoles (PVs) were stained with Hoechst 33342 (Invitrogen Molecular Probes, 12 µM) and LysoTracker Green (Life Technologies, DND-26, 1 µM), respectively. Acquisition of images was performed on live cell cultures.
# as §5
# [4] = system: L. donovani promastigotes (Ld1S); test: Resazurin reduction viability assay on cultured L. donovani promastigotes; format: cell-based; details: Leishmania donovani, read-out: EC50 against L. donovani promastigotes
# Experimental: Figure 4 Leish-Box screening results for cultured L. donovani promastigotes. A resazurin-based viability assay was used to assess anti-leishmanial activity of Leish-Box compounds against Ld1S promastigotes. Two days after compound addition to parasite cultures at logarithmic growth phase, resazurin was added for an additional 24 hours before reading the level of resofurin fluorescence using an Infinite™ M200 plate reader (Tecan™). […] The outer and inner circles represent respectively 80% and 50% threshold activity values.
# Anti-leishmanial activity of compounds was evaluated using an adapted resazurin reduction assay[53] with cell-cycling promastigotes from logarithmic growth phase. Compounds were tested in quadruplicates at 20, 4 and 0.8 μM at 26 °C in 384-well plates. DMSO vehicle and AmB (1 μM) were used as controls. Two days later, resazurin was added (10 μL per well at 25 μg/mL) and fluorescence intensity was measured 24 h later using a Tecan Safire 2 reader (excitation 558 ± 4.5 nm; emission 585 ± 10 nm). Following background subtraction (complete parasite culture medium with resazurin in absence of parasites), data were expressed as percentages of growth compared to DMSO-treated controls (POC).
structure (smiles),measurement,setting,value
O=C(Nc1ccc(S(=O)(=O)N2CCCC2)cc1)c1ccc([N+](=O)[O-])s1 [TCMDC-143169],EC50,[1],> 10000 nM
same,SI (selectivity index),[2],"> 1,5"
same,EC50,[2],6880 nM
same,activity on L. amazonensis intramacrophagic amastigotes,[3],active
COc1ccc(Oc2ccc(C(C)N(C)c3ncc4c(N)nc(N)nc4n3)cc2)cc1 (stereo not shown) [TCMDC-143295],EC50,[1],> 10000 nM
same,SI (selectivity index),[2],> 10
same,EC50,[2],480 nM
same,activity on L. amazonensis intramacrophagic amastigotes,[3],active
same,EC50,[4],80 nM
O=C(Nc1cccc(S(=O)(=O)Nc2ccc(Br)cc2)c1)c1ccc([N+](=O)[O-])s1 [TCMDC-143563],EC50,[1],6250 nM
same,SI (selectivity index),[2],> 10
same,EC50,[2],590 nM
same,activity on L. amazonensis intramacrophagic amastigotes,[3],active
COc1ccc(NS(=O)(=O)c2cc(NC(=O)c3ccc([N+](=O)[O-])s3)ccc2OC)cc1 [TCMDC-143163],EC50,[1],> 10000 nM
same,SI (selectivity index),[2],> 10
same,EC50,[2],790 nM
same,activity on L. amazonensis intramacrophagic amastigotes,[3],active
"C[C@@H]1[C@H](O)[C@@H](C)/C=C/C=C/C=C/C=C/C=C/C=C/C=C/[C@H](O[C@@H]2O[C@H](C)[C@@H](O)[C@H](N)[C@@H]2O)C[C@@H]2O[C@](O)(C[C@@H](O)C[C@@H](O)[C@H](O)CC[C@@H](O)C[C@@H](O)CC(=O)O[C@H]1C)C[C@H](O)[C@H]2C(=O)O [AmB, amphotericin B, reference compound]",toxicity toward the host cell,"[1]; BMDMs recovered after three days of treatment, normalized to mock",some toxicity
same,amastigote survival compared to DMSO control,"[2]; positive control, 3 days",0.8%
Cc1ccc(NC(=O)c2ccc([N+](=O)[O-])s2)cc1S(=O)(=O)N1CCOCC1 [TCMDC-143577],EC50,[1],5090 nM
same,EC50,[2],1250 nM
same,activity on L. amazonensis intramacrophagic amastigotes,[3],active
